Results on 22 compounds are retold here after PubChem BioAssay AID330 (DTP/NCI, 2004).

In the assay the test system is P388 leukemia ip, CD2F1 mice, survival T/C. Description: NCI In Vivo Anticancer Drug Screen. Data for tumor model P388 Leukemia (intraperitoneal) in CD2F1 (CDF1) mice. To be noted: endpoint: median survival time, higher = longer survival. In short, it runs like this: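 Mice carrying the transplanted tumor received test compound or vehicle. Survival was recorded in each group, and the value is the treated-group measurement divided by that of the vehicle-treated control group.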

Setting [1] is: dose: 25.0 mg/kg/injection, schedule: Q01DX009 (ip), vehicle: saline with Tween-80.
Where [2] appears, read: dose: 50.0 mg/kg/injection, schedule: Q01DX009 (ip), vehicle: saline with Tween-80.
The mark [3] stands for this setting: dose: 100.0 mg/kg/injection, schedule: Q01DX009 (ip), vehicle: saline with Tween-80.
Where [4] appears, read: dose: 100.0 mg/kg/injection, schedule: Q04DX003 (ip), vehicle: Klucel (hydroxypropylcellulose) (HPC).
Setting [5] is: dose: 25.0 mg/kg/injection, schedule: Q01DX009 (ip), vehicle: other.
Setting [6] is: dose: 50.0 mg/kg/injection, schedule: Q01DX009 (ip), vehicle: other.
Where [7] appears, read: dose: 100.0 mg/kg/injection, schedule: Q01DX009 (ip), vehicle: other.
Where [8] appears, read: dose: 50.0 mg/kg/injection, schedule: Q01DX009 (ip), vehicle: Klucel (hydroxypropylcellulose) (HPC).
Setting [9] is: dose: 100.0 mg/kg/injection, schedule: Q01DX009 (ip), vehicle: Klucel (hydroxypropylcellulose) (HPC).
Where [10] appears, read: dose: 200.0 mg/kg/injection, schedule: Q01DX009 (ip), vehicle: Klucel (hydroxypropylcellulose) (HPC).
The mark [11] stands for this setting: dose: 60.0 mg/kg/injection, schedule: Q01DX005 (ip), vehicle: saline.
The mark [12] stands for this setting: dose: 120.0 mg/kg/injection, schedule: Q01DX005 (ip), vehicle: saline.
The mark [13] stands for this setting: dose: 240.0 mg/kg/injection, schedule: Q01DX005 (ip), vehicle: saline.

Several values for one entry are separate records, joined by “and”; a condition that tells them apart may be missing. Identical values can stand only once. Inconclusive results and toxic doses are left out.

Take `O=c1[nH]c2ccccc2nc1Cl`: the T/C was 100 % of control under setting [1], 98 % of control under setting [2] and 97 % of control under setting [3].
`COC(=O)NC1=Nc2ccc(Cl)cc2NS1`: the T/C (dose: 12.5 mg/kg/injection, schedule: Q01DX005 (ip), vehicle: Klucel (hydroxypropylcellulose) (HPC)) was 102 % of control; the T/C (dose: 25.0 mg/kg/injection, schedule: Q01DX005 (ip), vehicle: Klucel (hydroxypropylcellulose) (HPC)) was 100 % of control; the T/C (dose: 50.0 mg/kg/injection, schedule: Q01DX005 (ip), vehicle: Klucel (hydroxypropylcellulose) (HPC)) is 112 % of control and 97 % of control.
For the compound `c1ccc(OC2CCCCC2N2CCOCC2)cc1` (stereo unspecified), the T/C was 87 % of control (dose: 50.0 mg/kg/injection, schedule: Q01DX009 (ip), vehicle: suspension in saline); 87 % of control (dose: 100.0 mg/kg/injection, schedule: Q01DX009 (ip), vehicle: suspension in saline); 94 % of control (dose: 200.0 mg/kg/injection, schedule: Q01DX009 (ip), vehicle: suspension in saline).
Consider `C(=C1\Oc2ccccc2N=C1OCCN1CCOCC1)/c1ccccc1`, for which the T/C reads like this: under setting [4], 97 % of control; (dose: 200.0 mg/kg/injection, schedule: Q04DX003 (ip), vehicle: Klucel (hydroxypropylcellulose) (HPC)) 99 % of control; (dose: 400.0 mg/kg/injection, schedule: Q04DX003 (ip), vehicle: Klucel (hydroxypropylcellulose) (HPC)) 98 % of control.
As to `COc1cccc2c1C(=O)c1c(O)c3c(c(O)c1C2=O)C[C@@](O)(/C(C)=N/N1CCCCC1)C[C@@H]3OC1CC(N)C(O)C(C)O1` (stereo partly specified), the T/C (dose: 1.25 mg/kg/injection, schedule: Q01DX009 (ip), vehicle: saline) is 156 % of control; the T/C (dose: 2.5 mg/kg/injection, schedule: Q01DX009 (ip), vehicle: saline) was 160 % of control; the T/C (dose: 5.0 mg/kg/injection, schedule: Q01DX009 (ip), vehicle: saline) is 101 % of control.
With `Cc1c2cc[n+](C)c(C)c2cc2c1[nH]c1ccccc12`, the T/C is, setting by setting: (dose: 1.56 mg/kg/injection, schedule: Q04DX002 (ip), vehicle: water) 100 % of control; (dose: 3.12 mg/kg/injection, schedule: Q04DX002 (ip), vehicle: water) 115 % of control; (dose: 6.25 mg/kg/injection, schedule: Q04DX002 (ip), vehicle: water) 117 % of control; (dose: 10.0 mg/kg/injection, schedule: Q04DX002 (ip), vehicle: water) 115 % of control; (dose: 12.5 mg/kg/injection, schedule: Q04DX002 (ip), vehicle: water) 118 % of control; (dose: 20.0 mg/kg/injection, schedule: Q04DX002 (ip), vehicle: water) 115 % of control. Besides, the T/C is, setting by setting: (dose: 25.0 mg/kg/injection, schedule: Q04DX002 (ip), vehicle: water) 115 % of control; (dose: 40.0 mg/kg/injection, schedule: Q04DX002 (ip), vehicle: water) 115 % of control; (dose: 50.0 mg/kg/injection, schedule: Q04DX002 (ip), vehicle: water) 106 % of control.
Consider `O=C(NNS(=O)(=O)CCC(NC(=O)OCc1ccccc1)C(=O)OCc1ccccc1)OCc1ccccc1` (stereo unspecified), for which the T/C was 110 % of control (dose: 12.5 mg/kg/injection, schedule: Q01DX009 (ip), vehicle: other); 102 % of control under setting [5]; 96 % of control under setting [6]; 96 % of control under setting [7].
Turning to `CCN(CC)CCNC(=O)c1nn(-c2ccccc2)c2c1CCCc1ccccc1-2`, the T/C is, setting by setting: (dose: 25.0 mg/kg/injection, schedule: Q04DX003 (ip), vehicle: Klucel (hydroxypropylcellulose) (HPC)) 101 % of control; (dose: 50.0 mg/kg/injection, schedule: Q04DX003 (ip), vehicle: Klucel (hydroxypropylcellulose) (HPC)) 101 % of control; under setting [4], 99 % of control and 92 % of control.
Consider `C[N+](C)(C)CCNP(=O)(Oc1ccccc1)c1ccccc1` (stereo unspecified), for which the T/C runs as follows: (dose: 50.0 mg/kg/injection, schedule: Q01DX005 (ip), vehicle: saline with Tween-80) 103 % of control; (dose: 100.0 mg/kg/injection, schedule: Q01DX005 (ip), vehicle: saline with Tween-80) 94 % of control.
Consider `CC[P+](CC)(c1ccccc1)c1ccccc1`, for which the T/C runs as follows: (dose: 3.12 mg/kg/injection, schedule: Q01DX005 (ip), vehicle: saline) 94 % of control; (dose: 6.25 mg/kg/injection, schedule: Q01DX005 (ip), vehicle: saline) 95 % of control; (dose: 12.5 mg/kg/injection, schedule: Q01DX005 (ip), vehicle: saline) 100 % of control.
Turning to `CC(NC(=O)C(N)Cc1ccc(Cl)cc1)P(=O)(O)O` (stereo unspecified), the T/C was 100 % of control (dose: 12.5 mg/kg/injection, schedule: Q04DX002 (ip), vehicle: saline with Tween-80); 94 % of control (dose: 25.0 mg/kg/injection, schedule: Q04DX002 (ip), vehicle: saline with Tween-80); 103 % of control (dose: 50.0 mg/kg/injection, schedule: Q04DX002 (ip), vehicle: saline with Tween-80).
In the case of `CN(C)CCNC1=C(Cl)C(=O)c2ccccc2C1=O`, the T/C was 95 % of control (dose: 3.13 mg/kg/injection, schedule: Q01DX009 (ip), vehicle: saline); 94 % of control (dose: 6.25 mg/kg/injection, schedule: Q01DX009 (ip), vehicle: saline); 97 % of control (dose: 12.5 mg/kg/injection, schedule: Q01DX009 (ip), vehicle: saline).
On to `Cc1ccc(N(O)C(C)(C)C)cc1`, for which the T/C is, setting by setting: under setting [1], 97 % of control; (dose: 25.0 mg/kg/injection, schedule: Q04DX003 (ip), vehicle: gum acacia) 99 % of control; under setting [2], 91 % of control; (dose: 50.0 mg/kg/injection, schedule: Q04DX003 (ip), vehicle: gum acacia) 100 % of control; under setting [3], 102 % of control; (dose: 100.0 mg/kg/injection, schedule: Q04DX003 (ip), vehicle: gum acacia) 110 % of control. Further, the T/C (dose: 200.0 mg/kg/injection, schedule: Q04DX003 (ip), vehicle: gum acacia) is 100 % of control.
`COc1ccc(/C=C/C(=O)CCC(=O)O)cc1OC`: the T/C under setting [8] is 100 % of control and 109 % of control; the T/C (dose: 50.0 mg/kg/injection, schedule: Q01DX009 (ip), vehicle: saline) is 114 % of control; the T/C under setting [9] is 108 % of control and 109 % of control; the T/C under setting [10] is 106 % of control and 110 % of control.
Regarding `CSc1cccc(NC(=O)Nc2c(C)n(C)n(-c3ccccc3)c2=O)c1`, the T/C is 92 % of control under setting [8], 96 % of control under setting [9] and 88 % of control under setting [10].
`COc1cc(CC(NC(C)=O)C(=O)O)cc(OC)c1OC` (stereo unspecified): the T/C (dose: 100.0 mg/kg/injection, schedule: Q01DX001 (ip), vehicle: saline) is 105 % of control; the T/C (dose: 200.0 mg/kg/injection, schedule: Q01DX001 (ip), vehicle: saline) was 99 % of control; the T/C (dose: 400.0 mg/kg/injection, schedule: Q01DX001 (ip), vehicle: saline) was 100 % of control.
In the case of `O=S1(=O)C(c2cccc(F)c2)=C(O)c2cc3ccccc3nc21`, the T/C reads like this: under setting [2], 104 % of control; under setting [3], 97 % of control; (dose: 200.0 mg/kg/injection, schedule: Q01DX009 (ip), vehicle: saline with Tween-80) 104 % of control.
As for `COC1OC(COC(C)=O)C(N(C)C(C)=O)C1OC(C)=O` (stereo unspecified), the T/C by setting is: under setting [11], 103 % of control; under setting [12], 96 % of control; under setting [13], 104 % of control.
On to `O=C(Nc1cc(Cl)c([N+](=O)[O-])cc1O)c1ccco1`, for which the T/C under setting [8] was 106 % of control, the T/C under setting [9] was 99 % of control and the T/C under setting [10] was 98 % of control.
As to `Cc1c(C#N)sc2ccccc12`, the T/C under setting [5] is 96 % of control, the T/C under setting [6] is 105 % of control and the T/C under setting [7] was 89 % of control.
As to `COC(OC)C1CC=CCCC1C(=O)O` (stereo unspecified), the T/C runs as follows: under setting [11], 91 % of control; under setting [12], 107 % of control; under setting [13], 96 % of control.
As to `[Cl][Pt][Cl].[NH-]CC(=O)O`, the T/C (dose: 25.0 mg/kg/injection, schedule: Q01DX009 (ip), vehicle: water) is 171 % of control and 185 % of control; the T/C (dose: 50.0 mg/kg/injection, schedule: Q01DX009 (ip), vehicle: water) was 104 % of control.
